Data reported in PubChem BioAssay (NCI).
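Step 1: Grow cells in 96-well plates. Step 2: Expose to compound for 48 hours at 5 concentrations. Step 3: Interpolate endpoints linearly; if unreached, use highest concentration. TGI is the concentration that stops growth completely.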

What was measured:
Assay in all cases: NCI anticancer screen, dose series, 48 h
ACHN renal = tested on: ACHN renal
U251 CNS = tested on: U251 CNS
TK-10 renal = tested on: TK-10 renal
UO-31 renal = tested on: UO-31 renal
OVCAR-8 ovarian = tested on: OVCAR-8 ovarian
PC-3 prostate = tested on: PC-3 prostate
SW-620 colon = tested on: SW-620 colon
SF-268 CNS = tested on: SF-268 CNS
SK-MEL-5 melanoma = tested on: SK-MEL-5 melanoma
CAKI-1 renal = tested on: CAKI-1 renal
COLO 205 colon = tested on: COLO 205 colon
HOP-62 NSCLC = tested on: HOP-62 NSCLC
HL-60(TB) leukemia = tested on: HL-60(TB) leukemia
K-562 leukemia = tested on: K-562 leukemia
SN12C renal = tested on: SN12C renal
HCC-2998 colon = tested on: HCC-2998 colon
SNB-19 CNS = tested on: SNB-19 CNS
RXF 393 renal = tested on: RXF 393 renal
EKVX NSCLC = tested on: EKVX NSCLC
RPMI-8226 leukemia = tested on: RPMI-8226 leukemia
MOLT-4 leukemia = tested on: MOLT-4 leukemia
HCT-15 colon = tested on: HCT-15 colon
NCI/ADR-RES ovarian = tested on: NCI/ADR-RES ovarian
SNB-75 CNS = tested on: SNB-75 CNS
BT-549 breast = tested on: BT-549 breast
HCT-116 colon = tested on: HCT-116 colon
NCI-H460 lung = tested on: NCI-H460 lung
LOX IMVI melanoma = tested on: LOX IMVI melanoma
OVCAR-3 ovarian = tested on: OVCAR-3 ovarian
SF-295 CNS = tested on: SF-295 CNS
SK-OV-3 ovarian = tested on: SK-OV-3 ovarian
MALME-3M melanoma = tested on: MALME-3M melanoma
UACC-257 melanoma = tested on: UACC-257 melanoma
KM12 colon = tested on: KM12 colon
M14 melanoma = tested on: M14 melanoma
OVCAR-4 ovarian = tested on: OVCAR-4 ovarian
OVCAR-5 ovarian = tested on: OVCAR-5 ovarian
SK-MEL-28 melanoma = tested on: SK-MEL-28 melanoma
MDA-MB-435 = tested on: MDA-MB-435
SK-MEL-2 melanoma = tested on: SK-MEL-2 melanoma
NCI-H522 lung = tested on: NCI-H522 lung
SF-539 CNS = tested on: SF-539 CNS
CCRF-CEM leukemia = tested on: CCRF-CEM leukemia
HS 578T breast = tested on: HS 578T breast
MDA-MB-231 breast = tested on: MDA-MB-231 breast
IGROV1 ovarian = tested on: IGROV1 ovarian
T-47D breast = tested on: T-47D breast
786-0 renal = tested on: 786-0 renal
HT29 colon = tested on: HT29 colon
HOP-92 NSCLC = tested on: HOP-92 NSCLC
UACC-62 melanoma = tested on: UACC-62 melanoma
DU-145 prostate = tested on: DU-145 prostate
MDA-N = tested on: MDA-N
NCI-H23 lung = tested on: NCI-H23 lung
MCF7 breast = tested on: MCF7 breast
A498 renal = tested on: A498 renal
A549 NSCLC = tested on: A549 NSCLC
NCI-H226 lung = tested on: NCI-H226 lung

Work on `C=C1C(=O)O[C@H]2C3C(=C(C)CC[C@@H]12)C(=O)[C@@H]1OC31C` (stereo partly drawn) yielded a TGI (ACHN renal) of 8.07 µM, a TGI (U251 CNS) of 26.3 µM and a TGI (TK-10 renal) of 4.4 µM. The TGI (UO-31 renal) was 11.1 µM, the TGI (OVCAR-8 ovarian) was 5.42 µM and the TGI (PC-3 prostate) was 7.1 µM. For the same compound, the TGI (SW-620 colon) was 2.6 µM, the TGI (SF-268 CNS) was 12.6 µM and the TGI (SK-MEL-5 melanoma) was 6.11 µM. The TGI (CAKI-1 renal) was 7.9 µM, the TGI (COLO 205 colon) was 2.66 µM and the TGI (HOP-62 NSCLC) was 28.6 µM. The TGI (HL-60(TB) leukemia) was 0.469 µM, the TGI (K-562 leukemia) was 5.35 µM and the TGI (SN12C renal) was 3.18 µM. For the same compound, the TGI (HCC-2998 colon) was 29.7 µM, the TGI (SNB-19 CNS) was 29.5 µM and the TGI (RXF 393 renal) was 2.99 µM. It also gave a TGI (EKVX NSCLC) of 33.2 µM, a TGI (RPMI-8226 leukemia) of 3.62 µM and a TGI (MOLT-4 leukemia) of 3.27 µM. For the same compound, the TGI (HCT-15 colon) was 3.16 µM, the TGI (NCI/ADR-RES ovarian) was 10.7 µM and the TGI (SNB-75 CNS) was 6.57 µM. The TGI (BT-549 breast) was 4.6 µM, the TGI (HCT-116 colon) was 2.7 µM and the TGI (NCI-H460 lung) was 25.3 µM. The TGI (LOX IMVI melanoma) was 5.79 µM, the TGI (OVCAR-3 ovarian) was 4.38 µM and the TGI (SF-295 CNS) was 27.3 µM. The TGI (SK-OV-3 ovarian) was 29.4 µM, the TGI (MALME-3M melanoma) was 4.66 µM and the TGI (UACC-257 melanoma) was 5.98 µM. The TGI (KM12 colon) was 20.2 µM, the TGI (M14 melanoma) was 3.19 µM and the TGI (OVCAR-4 ovarian) was 3.39 µM. It also gave a TGI (OVCAR-5 ovarian) of 23.3 µM, a TGI (SK-MEL-28 melanoma) of 5.52 µM and a TGI (MDA-MB-435) of 7.13 µM. The TGI (SK-MEL-2 melanoma) was 18.3 µM, the TGI (NCI-H522 lung) was 2.91 µM and the TGI (SF-539 CNS) was 6.75 µM. It also gave a TGI (CCRF-CEM leukemia) of 1.31 µM, a TGI (HS 578T breast) of 9.8 µM and a TGI (MDA-MB-231 breast) of 8.08 µM. It also gave a TGI (IGROV1 ovarian) of 11.8 µM, a TGI (T-47D breast) of 3.96 µM and a TGI (786-0 renal) of 3.26 µM. The TGI (HT29 colon) was 4.28 µM, the TGI (HOP-92 NSCLC) was 10.7 µM and the TGI (UACC-62 melanoma) was 5.69 µM. It also gave a TGI (DU-145 prostate) of 25.8 µM, a TGI (MDA-N) of 3.95 µM and a TGI (NCI-H23 lung) of 6.4 µM. It also gave a TGI (MCF7 breast) of 11.2 µM, a TGI (A498 renal) of 23.7 µM and a TGI (A549 NSCLC) of 28.3 µM. It also gave a TGI (NCI-H226 lung) of 20.5 µM.
